Data as given in patent publication US20260124222A1, “ISOTHIAZOLYLCARBOXAMIDE COMPOUNDS AND THEIR USE IN THERAPY” (HOTSPOT THERAPEUTICS, INC., priority 2022, published 2026).

Biological target: T1, Avi-tagged FL MALT-1 (Homo sapiens, UniProt Q9UDY8)
T1 construct: Avi-tagged FL MALT-1 (Pharmaron, stored at −70° C.); Avi-tag; purchased Pharmaron
T1 sequence (Q9UDY8 1-824): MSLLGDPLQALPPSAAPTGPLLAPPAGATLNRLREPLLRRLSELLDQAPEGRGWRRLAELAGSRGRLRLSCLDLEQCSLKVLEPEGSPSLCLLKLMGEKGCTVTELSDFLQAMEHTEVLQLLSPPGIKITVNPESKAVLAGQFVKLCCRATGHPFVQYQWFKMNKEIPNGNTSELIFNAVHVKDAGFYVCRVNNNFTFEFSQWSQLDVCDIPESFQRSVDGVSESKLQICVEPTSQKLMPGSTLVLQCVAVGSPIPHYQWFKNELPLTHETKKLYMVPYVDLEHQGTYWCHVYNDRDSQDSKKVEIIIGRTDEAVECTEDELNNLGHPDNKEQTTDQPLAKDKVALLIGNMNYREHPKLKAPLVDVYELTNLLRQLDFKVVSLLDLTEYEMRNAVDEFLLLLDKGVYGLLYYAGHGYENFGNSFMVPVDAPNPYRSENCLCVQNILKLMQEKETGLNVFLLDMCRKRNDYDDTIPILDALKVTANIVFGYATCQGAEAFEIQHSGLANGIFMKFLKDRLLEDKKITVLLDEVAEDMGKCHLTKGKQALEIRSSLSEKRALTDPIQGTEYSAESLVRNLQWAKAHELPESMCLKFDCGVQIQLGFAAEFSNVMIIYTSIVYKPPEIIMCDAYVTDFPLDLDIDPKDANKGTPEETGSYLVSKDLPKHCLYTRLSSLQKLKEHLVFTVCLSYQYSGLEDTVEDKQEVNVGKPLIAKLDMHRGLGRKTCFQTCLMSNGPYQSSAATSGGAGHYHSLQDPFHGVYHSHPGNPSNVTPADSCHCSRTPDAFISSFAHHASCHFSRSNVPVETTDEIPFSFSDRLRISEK
Assay: MALT-1 Fluorogenic Peptide Cleavage Assay (MALT1 inhibition assay)
Assay type: biochemical
Details: Ac-LRSR-AMC peptide substrate; 30 min pre-incubation, 90 min reaction at room temperature; fluorescence
Method: Inhibition of MALT1 activity by a small molecule was evaluated using MALT-1 Fluorogenic Peptide Cleavage Assay. The assay utilizes a quenched AMC-labelled peptide that contains the MALT-1 recognition sequence and cleavage site (LRSR). MALT-1 mediated cleavage of the peptide relieves the quenching and leads to an increase in fluorescence at excitation (342 nm) and emission (441 nm).
The following reagents were obtained commercially and used to prepare standard reagent formulations as further described below: N-2-hydroxyethylpiperazine-N-2-ethane sulfonic acid (HEPES) (1 M, pH 7.5, stored at 4° C.), sodium citrate (stored at RT), tris(2-carboxyethyl)phosphine hydrochloride (T-CEP) (500 mM, stored at −20° C.), ethylenediaminetetraacetic acid (EDTA) (500 mM, stored at RT), dimethylsulfoxide (DMSO, stored at RT), 3-[(3-cholamidopropyl)dimethylammonio]-1-propane sulphate (CHAPS) (stored at RT), dimethylsulfoxide (DMSO), DMSO (Fisher Scientific, stored at RT), Avi-tagged FL MALT-1 (Pharmaron, stored at −70° C.), Ac-LRSR-AMC Peptide (SM Biochemicals, stored at −20° C.), and ultrapure water (MILLI-Q®).
The standard reagent formulations used in this assay were prepared and stored as follows. A 1.1 M solution of sodium citrate (161.3 g, 500 mL) was prepared and stored at room temperature. A 10% (w/v) CHAPS solution (2.0 g, 20 mL) was prepared and stored at 4° C. A 500 mM HEPES solution having pH of 6.89 was prepared from 200 mL of a 1 M HEPES solution having a pH of 7.5 using concentrated hydrochloric acid and brought to a final volume of 400 mL with MILLI-Q© H2O. The substrate, 10 mM Ac-LRSR-AMC Peptide, was prepared (10 mg, 1.370 mL DMSO) and stored at −20° C.
Compounds were plated to provide a 2% DMSO final concentration using a ProxiPlate-384 Plus F Black 384-shallow well microplate. The assay-ready plates were equilibrated to room temperature. A reaction buffer (30 mL total volume) was prepared by combining HEPES (pH 6.89, 25 mM, 1.5 mL), sodium citrate (660 mM, 18.0 mL), T-CEP (1 mM, 0.06 mL), EDTA (0.1 mM, 0.06 mL), CHAPS (0.05%, 0.15 mL), DMSO (2%, 0.6 mL), and MILLI-Q® H2O (10.23 mL; 9.63 mL when backfilled to 2% DMSO) followed by thorough mixing.
MALT-1 was thawed and kept on ice. Peptide substrate was thawed on the bench under ambient conditions. A MALT-1 enzyme working stock was prepared from Avi-tagged FL MALT-1 (40 nM in a prepared reagent volume of […]) and the reaction buffer (13.0 mL). MALT1 working stock (5 μL) was added to each well of the microplate. MALT-1 was pre-incubated with compounds for 30 minutes at room temperature.
Two substrate working stocks (Km and 10×Km) were prepared. The 1×Km substrate was prepared from Ac-LRSR-AMC Peptide (50 μM in a prepared reagent volume of […]) and the reaction buffer (6.965 mL). The 10×Km substrate was prepared from Ac-LRSR-AMC Peptide ([…] in a prepared reagent volume of 196.0 μL) and the reaction buffer (6.804 mL). The reaction was initiated by the addition of substrate working stock (5 μL, 50 μM) to Km plates and the addition of substrate working stock (5 μL 280 μM) to 10×Km plates. The plates were covered and incubated on the bench at room temperature for 90 minutes.
Fluorescence intensity was determined using a CLARIOstar microplate reader (BMG LABTECH) using the optimised AMC mode. Before taking readings, a 70% gain was applied on the neutral control well. Compound data were normalised to % Inhibition and used to plot sigmoidal concentration response curves to yield various parameters including IC50.

| IC50 [nM] | Compound |
| --- | --- |
| ≤ 400 | N#Cc1cncc(NC(=O)c2snc(-c3ccccc3)c2C2CC2)c1 [I-30, N-(5-CYANOPYRIDIN-3-YL)-4-CYCLOPROPYL-3-PHENYLISOTHIAZOLE-5-CARBOXAMIDE] |
| ≤ 400 | Cc1ncc(NC(=O)c2snc(-c3ccccc3)c2C2CC2)cc1Cl [I-33] |
| ≤ 400 | COc1ncc(NC(=O)c2snc(-c3ccccc3)c2C2CC2)cc1Cl [I-40, N-(5-CHLORO-6-METHOXYPYRIDIN-3-YL)-4-CYCLOPROPYL-3-PHENYLISOTHIAZOLE-5-CARBOXAMIDE] |
| ≤ 400 | O=C(Nc1cncc(Cl)c1)c1snc(-c2ccccc2)c1C1CC1 [I-42, N-(5-CHLOROPYRIDIN-3-YL)-4-CYCLOPROPYL-3-PHENYLISOTHIAZOLE-5-CARBOXAMIDE] |
| > 2500 | O=C(Nc1cncc(F)c1)c1snc(-c2ccccc2)c1C1CC1 [I-43, 4-CYCLOPROPYL-N-(5-FLUOROPYRIDIN-3-YL)-3-PHENYLISOTHIAZOLE-5-CARBOXAMIDE] |
| > 2500 | COc1cncc(NC(=O)c2snc(-c3ccccc3)c2C2CC2)c1 [I-44, 4-CYCLOPROPYL-N-(5-METHOXYPYRIDIN-3-YL)-3-PHENYLISOTHIAZOLE-5-CARBOXAMIDE] |
| 1000 to 2500 | Cc1cncc(NC(=O)c2snc(-c3ccccc3)c2C2CC2)c1 [I-45, 4-CYCLOPROPYL-N-(5-METHYLPYRIDIN-3-YL)-3-PHENYLISOTHIAZOLE-5-CARBOXAMIDE] |
| > 2500 | CN(C)c1ccc(NC(=O)c2snc(-c3ccccc3)c2C2CC2)cn1 [I-46, 4-CYCLOPROPYL-N-(6-(DIMETHYLAMINO) PYRIDIN-3-YL)-3-PHENYLISOTHIAZOLE-5-CARBOXAMIDE] |
| 400 to 1000 | Cn1ncc2cc(NC(=O)c3snc(-c4ccccc4)c3C3CC3)cnc21 [I-47, 4-CYCLOPROPYL-N-(1-METHYL-1H-PYRAZOLO [3,4-B]PYRIDIN-5-YL)-3-PHENYLISOTHIAZOLE-5-CARBOXAMIDE] |

Further lines, the compound ahead of its results:

| Compound | IC50 [nM] |
| --- | --- |
| CN(CCO)C(=O)c1ccc(NC(=O)c2snc(-c3ccccc3)c2C2CC2)cc1Cl [I-24, N-(3-CHLORO-4-((2-HYDROXYETHYL) (METHYL)CARBAMOYL)PHENYL)-4-CYCLOPROPYL-3-PHENYLISOTHIAZOLE-5-CARBOXAMIDE] | ≤ 400 |
| COCCN(C)C(=O)c1ccc(NC(=O)c2snc(-c3ccccc3)c2C2CC2)cc1Cl [I-25, N-(3-CHLORO-4-((2-METHOXYETHYL) (METHYL) CARBAMOYL)PHENYL)-4-CYCLOPROPYL-3-PHENYL-ISOTHIAZOLE-5-CARBOXAMIDE] | ≤ 400 |
| O=C(Nc1ccnc(C(F)(F)F)c1)c1snc(-c2ccccc2)c1C1CC1 [I-26, 3-PHENYL-4-CYCLOPROPYL-N-(2-(TRIFLUOROMETHYL)PYRIDIN-4-YL)ISOTHIAZOLE-5-CARBOXAMIDE] | ≤ 400 |
| N#Cc1cc(NC(=O)c2snc(-c3ccccn3)c2C2CC2)cnc1-n1nccn1 [I-27, N-(5-CYANO-6-(2H-1,2,3-TRIAZOL-2-YL) PYRIDIN-3-YL)-4-CYCLOPROPYL-3-(PYRIDIN-2-YL)ISOTHIAZOLE-5-CARBOXAMIDE] | ≤ 400 |
| N#Cc1cc(NC(=O)c2snc(-c3ncccc3Cl)c2C2CC2)cnc1-n1nccn1 [I-28, 3-(3-CHLOROPYRIDIN-2-YL)-N-(5-CYANO-6-(2H-1,2,3-TRIAZOL-2-YL)PYRIDIN-3-YL)-4-CYCLOPROPYLISOTHIAZOLE-5-CARBOXAMIDE] | ≤ 400 |
| CN(C)c1ncc(NC(=O)c2snc(-c3ccccc3)c2C2CC2)cc1C#N [I-29, N-(5-CYANO-6-(DIMETHYLAMINO)PYRIDIN-3-YL)-4-CYCLOPROPYL-3-PHENYLISOTHIAZOLE-5-CARBOXAMIDE] | ≤ 400 |
| O=C(Nc1cnc(-n2nccn2)c(Cl)c1)c1snc(-c2cnc3ccccn23)c1C(F)(F)F [I-31] | ≤ 400 |
| N#Cc1cc(NC(=O)c2snc(-c3ccccc3)c2C2CC2)ccc1C(=O)N1CC(O)C1 [I-32] | ≤ 400 |
| N#Cc1cc(NC(=O)c2snc(C3CCOCC3)c2C(F)(F)F)cnc1-n1nccn1 [I-34] | ≤ 400 |
| O=C(Nc1cnc(-n2nccn2)c(Cl)c1)c1snc(-c2cccc3ncccc23)c1C(F)(F)F [I-35, N-(5-CHLORO-6-(2H-1,2,3-TRIAZOL-2-YL) PYRIDIN-3-YL)-3-(QUINOLIN-5-YL)-4-(TRIFLUOROMETHYL)ISOTHIAZOLE-5-CARBOXAMIDE] | ≤ 400 |
| Cn1cc(-c2nsc(C(=O)Nc3cnc(-n4nccn4)c(C#N)c3)c2C(F)(F)F)ccc1=O [I-36, N-(5-CYANO-6-(2H-1,2,3-TRIAZOL-2-YL)PYRIDIN-3-YL)-3-(1-METHYL-6-OXO-1,6-DIHYDROPYRIDIN-3-YL)-4-(TRIFLUORO-METHYL)ISOTHIAZOLE-5-CARBOXAMIDE] | ≤ 400 |
| Cn1cc(-c2nsc(C(=O)Nc3cnc(-n4nccn4)c(C#N)c3)c2C(F)(F)F)cn1 [I-37, N-(5-CYANO-6-(2H-1,2,3-TRIAZOL-2-YL)PYRIDIN-3-YL)-3-(1-METHYL-1H-PYRAZOL-4-YL)-4-(TRIFLUORO-METHYL)ISOTHIAZOLE-5-CARBOXAMIDE] | 400 to 1000 |
| CC(C)c1nsc(C(=O)Nc2cnc(-n3nccn3)c(C#N)c2)c1C(F)(F)F [I-38, N-(5-CYANO-6-(2H-1,2,3-TRIAZOL-2-YL) PYRIDIN-3-YL)-3-ISOPROPYL-4-(TRIFLUOROMETHYL)ISOTHIAZOLE-5-CARBOXAMIDE] | ≤ 400 |
| COc1c(-c2ccccc2)nsc1C(=O)Nc1cnc(-n2nccn2)c(Cl)c1 [I-39, N-(5-CHLORO-6-(2H-1,2,3-TRIAZOL-2-YL) PYRIDIN-3-YL)-4-METHOXY-3-PHENYLISOTHIAZOLE-5-CARBOXAMIDE] | ≤ 400 |
| Cc1cc(NC(=O)c2snc(-c3ccccc3)c2C2CC2)cn(C)c1=O [I-41] | > 2500 |
| Cc1cc(NC(=O)c2snc(-c3ccccc3)c2C2CC2)cnc1-n1ccnn1 [I-48, 4-CYCLOPROPYL-N-(5-METHYL-6-(1H-1,2,3-TRIAZOL-1-YL)PYRIDIN-3-YL)-3-PHENYLISOTHIAZOLE-5-CARBOXAMIDE] | ≤ 400 |
| O=C(Nc1ccc(C(=O)N2CC(O)C2)c(Cl)c1)c1snc(-c2ncccc2Cl)c1C1CC1 [I-49, N-(3-CHLORO-4-(3-HYDROXYAZETIDINE-1-CARBONYL)PHENYL)-3-(3-CHLOROPYRIDIN-2-YL)-4-CYCLOPROPYL-ISOTHIAZOLE-5-CARBOXAMIDE] | 1000 to 2500 |
| CN(C)C(=O)c1ncc(NC(=O)c2snc(-c3ccccc3)c2C2CC2)cc1Cl [I-50, N-(5-CHLORO-6-(DIMETHYLCARBAMOYL) PYRIDIN-3-YL)-4-CYCLOPROPYL-3-PHENYLISOTHIAZOLE-5-CARBOXAMIDE] | ≤ 400 |
